Marks after values point to notes of the source that are not given here.

For the data set the following is noted: pH 2.7.
Regarding `CC(C)(C)OC(=O)Nc1cccc(CON=C(C(N)=NO)c2ccncc2)n1` [Example V-06], the LogP was 1.53^[a].
Turning to `Cn1oc(=O)nc1C(=NOCc1cccc(N)n1)c1cccnc1` [Example 34], the LogP was 1.19^[a].
For the compound `CCCCCC(=O)Nc1cccc(CON=C(c2ncccn2)c2nc(=O)on2C)n1` [Example 48], the LogP was 2.18^[a].
As to `CCCCOC(=O)Nc1cccc(CON=C(c2ccccn2)c2nc(=O)on2CC)n1` [Example 5], the LogP was 2.96^[a].
For `Cn1c(C(=NOCc2csc(NC(=O)COc3ccccc3)n2)c2cccs2)noc1=O` [Example 86], the LogP was 3.18^[a].
Consider `Cn1oc(=O)nc1C(=NOCc1cccc(NC(=O)OC(C)(C)C)n1)c1ncccn1` [Example 25], for which the LogP is 2.14^[a].
To `CC(C)(C)OC(=O)Nc1nc(CON=C(c2noc(=O)[nH]2)c2cccs2)cs1` [Example 24] belongs 3.26^[a].
`CCCCC(=O)Nc1cccc(CON=C(c2ccccn2)c2nc(=O)on2CC)n1` [Example 6]: the LogP was 2.49^[a].
For `CCCCCOC(=O)Nc1cccc(CON=C(c2ccncc2)c2nc(=O)on2C)n1` [Example 78], the LogP was 2.68^[a].
For the compound `CC(C)(C)OC(=O)Nc1cccc(CON=C(C(N)=NO)c2ccccn2)n1` [Example V-01], the LogP was 1.76^[a].
`Cn1c(C(=NOCc2csc(NC(=O)c3ccc(F)cc3)n2)c2ccsc2)noc1=O` [Example 64]: the LogP was 3.26^[a].
For the compound `CCn1oc(=O)nc1C(=NOCc1cccc(N)n1)c1ccccn1` [Example 1], the LogP was 0.69^[a].
In the case of `CC(C)(C)OC(=O)N(COCC[Si](C)(C)C)c1nc(CON=C(C#N)c2cccs2)cs1` [Example IV-06] it was 6.35^[a]; in that of `Cn1c(C(=NOCc2cccc(NC(=O)OC(C)(C)C)n2)c2ncccn2)noc1=O` (single isomer, unassigned) [Example 27], 2.66^[a][b].
To `Cn1c(C(=NOCc2cccc(NC(=O)OC(C)(C)C)n2)c2ncccn2)noc1=O` (single isomer, unassigned) [Example 28] belongs 2.56^[a][c].
To `Cn1c(C(=NOCc2csc(N(COCC[Si](C)(C)C)C(=O)OC(C)(C)C)n2)c2cccs2)noc1=O` [Example 70] belongs 5.84^[a].
As to `Cn1c(C(=NOCc2csc(NC(=O)c3ccc(F)cc3)n2)c2cccs2)noc1=O` [Example 85], the LogP is 3.20^[a].
Consider `CC(C)(C)OC(=O)N(COCC[Si](C)(C)C)c1nc(CON=C(c2noc(=O)[nH]2)c2cccs2)cs1` [Example 72], for which the LogP was 5.45^[a].
Consider `CC(C)(C)OC(=O)Nc1nc(CON=C(C(N)=NO)c2ccsc2)cs1` [Example V-02], for which the LogP is 2.17^[a].
In the case of `Cc1nc(CON=C(C#N)c2ccsc2)cs1` [Example IV-09] it was 1.45^[a]; in that of `C#CCCOC(=O)Nc1cccc(CON=C(c2ccncc2)c2nc(=O)on2C)n1` [Example 76], 1.74^[a]; in that of `Cn1c(C(=NOCc2cccc(N)n2)c2cccnc2)noc1=O` [Example 35], 0.52 ± 0.46^[a].
For `CCCCC(=O)Nc1cccc(CON=C(c2ncccn2)c2nc(=O)on2C)n1` [Example 58], the LogP is 1.84^[a].
In the case of `Cn1c(C(=NOCc2cccc(N)n2)c2ccccn2)noc1=O` [Example 14] it was 0.85^[a]; in that of `CCCCC(=O)Nc1cccc(CON=C(c2cccnc2)c2nc(=O)on2C)n1` [Example 62], 2.04^[a].
On to `CC(C)(C)OC(=O)Nc1cccc(CON=C(c2ncccn2)c2noc(=O)[nH]2)n1` [Example 26], for which the LogP is 2.27^[a].
To `Cn1c(C(=NOCc2cccc(N)n2)c2ncccn2)noc1=O` [Example 30] belongs 0.39^[a].
As for `CC(C)(C)OC(=O)Nc1nc(CON=C(C(N)=NO)c2cccs2)cs1` [Example V-08], the LogP was 2.26^[a].
In the case of `CC(C)(C)OC(=O)Nc1nc(CON=C(C#N)c2ccsc2)cs1` [Example IV-01], the LogP was 3.62^[a].
In the case of `CC(C)(C)OC(=O)Nc1cccc(CON=C(C(N)=NO)c2ncccn2)n1` [Example V-07] it was 1.58 + 1.87^[a]; in that of `CC(C)(C)OC(=O)Nc1cccc(CON=C(c2ccncc2)c2noc(=O)[nH]2)n1` [Example 36], 2.37^[a].
Regarding `CCCCCOC(=O)Nc1cccc(CON=C(c2ccccn2)c2nc(=O)on2CC)n1` [Example 2], the LogP is 3.42^[a].
To `CCCCOC(=O)Nc1cccc(CON=C(c2ncccn2)c2nc(=O)on2C)n1` [Example 46] belongs 2.23^[a].
Regarding `CN(C(=O)OC(C)(C)C)c1nc(CON=C(c2cccs2)c2noc(=O)n2C)cs1` [Example 41], the LogP is 4.24^[a].
Turning to `CCCCC(=O)Nc1cccc(CON=C(c2ncccn2)c2noc(=O)n2C)n1` [Example 61], the LogP is 2.23^[a].
For `CCOC(=O)c1nc(CON=C(C#N)c2ccsc2)cs1` [Example IV-08], the LogP was 3.15^[a].
`CCCCCC(=O)Nc1cccc(CON=C(c2ccccn2)c2nc(=O)on2C)n1` [Example 18]: the LogP was 2.61^[a].
For `Cn1oc(=O)nc1C(=NOCc1cccc(NC(=O)OC(C)(C)C)n1)c1cccnc1` [Example 31], the LogP was 2.28 + 2.37^[a].
Regarding `C#CCCOC(=O)Nc1cccc(CON=C(c2ncccn2)c2noc(=O)n2C)n1` [Example 54], the LogP is 2.08^[a].
To `CC(C)(C)OC(=O)N(COCC[Si](C)(C)C)c1nc(CON=C(C(N)=NO)c2cccs2)cs1` [Example V-04] belongs 4.60^[a]; to `CCCCCOC(=O)Nc1nc(CON=C(c2ccsc2)c2noc(=O)n2C)cs1` [Example 68], 3.81^[a].
In the case of `Cn1oc(=O)nc1C(=NOCc1cccc(N)n1)c1ncccn1` [Example 29] it was 0.92^[a].
For the compound `CCCCCC(=O)Nc1cccc(CON=C(c2cccnc2)c2noc(=O)n2C)n1` [Example 47], the LogP was 2.86^[a].
`Cn1c(C(=NOCc2cccc(N)n2)c2ccncc2)noc1=O` [Example 40]: the LogP was 0.41^[a].
In the case of `Cn1c(C(=NOCc2csc(N(COCC[Si](C)(C)C)C(=O)OC(C)(C)C)n2)c2ccsc2)noc1=O` [Example 65] it was 5.86^[a]; in that of `CC(C)(C)OC(=O)Nc1nc(CON=C(c2ccsc2)c2noc(=O)[nH]2)cs1` [Example 20], 3.20^[a].
With `CCCCCC(=O)Nc1cccc(CON=C(c2ccncc2)c2nc(=O)on2C)n1` [Example 77], the LogP is 2.23^[a].
To `CCCCC(=O)Nc1cccc(CON=C(c2ccccn2)c2nc(=O)on2C)n1` [Example 10] belongs 2.25^[a]; to `CC(C)(C)OC(=O)Nc1cccc(CON=C(C#N)c2ncccn2)n1` [Example IV-03], 2.82^[a].
In the case of `CCCCOC(=O)Nc1cccc(CON=C(c2ccncc2)c2nc(=O)on2C)n1` [Example 79] it was 2.32^[a]; in that of `CC(C)(C)OC(=O)N(COCC[Si](C)(C)C)c1nc(CON=C(c2ccsc2)c2noc(=O)[nH]2)cs1` [Example 66], 5.45^[a].
Turning to `CC(C)(C)OC(=O)Nc1nc(CON=C(C#N)c2cccs2)cs1` [Example IV-05], the LogP is 3.65^[a].
For the compound `Cn1c(C(=NOCc2csc(N)n2)c2cccs2)noc1=O` [Example 81], the LogP is 1.38^[a].

These data come from patent US20160002217A1, “FUNGICIDAL 3--OXADIAZOLONE DERIVATIVES” (BAYER CROPSCIENCE AG, priority 2013, published 2016).
